This passage reports IC50 and EC50 results from patent US11584747B2, “Substituted pyridopyrimidinonyl compounds useful as T cell activators” (BRISTOL-MYERS SQUIBB COMPANY, priority 2019, dated 2023).

Assay [1] addresses human DGKζ (Homo sapiens (Human), UniProt Q13574). Description: DGKζ LIPGLO assay (extruded liposome substrate, ADP-Glo luminescence). The class given is biochemical. The following applies: liposome (LIPGLO) assay; read-out: DGK zeta (liposome assay) IC50. (ADP-Glo turns the ADP formed in a reaction into a luminescent signal.)
The target of assay [2] is human DGKα (Homo sapiens (Human), UniProt P23743). Description: DGKα ADPGLO assay (detergent/lipid micelle substrate). Particulars: ADPGLO assay; read-out: DGK alpha ADPGLO IC50. The assay is classed as biochemical. As to the method:
DGK Alpha ADPGLO (Truncated) IC50 (uM)
The detergent/lipid micelle was prepared by combining 15 g phosphatidylserine (Avanti 840035P) and 1 g diacylglycerol (8008110) and dissolving into 150 mL chloroform in a 2 L round bottom flask. Chloroform was removed under high vacuum by rotary evaporation. […] The lipid/detergent solution was split into 5 mL aliquots and stored at −80° C.

The test system of assay [3] is human venous whole blood (IFN-γ). Description: Human whole blood IFN-γ assay. The assay is classed as cell-based. The following applies: Homo sapiens, 24 h, human whole blood, anti-CD3 plus anti-CD28 stimulation, 24 hours; read-out: IFN-γ Whole Blood EC50. As to the method:
Human venous whole blood (22.5 μL per well), obtained from healthy donors, was pre-treated with compounds for one hour at 37° C. in a humidified 95% air/5% CO2 incubator. The blood was stimulated with 2.5 μL anti-human CD3 and anti-CD28 mAb at a final concentration of 1 μg/mL each for 24 hours at 37° C. IFN-γ in the supernatants was measured using AlphLISA kit (Cat #AL217).

For assay [4], the system named is whole blood (pERK). The assay is described as follows: pERK Whole Blood. The class given is cell-based.

Molecules are shown by their SMILES.

Sequence of human DGKζ (Q13574 other isoform, or with tags, fused parts or gaps): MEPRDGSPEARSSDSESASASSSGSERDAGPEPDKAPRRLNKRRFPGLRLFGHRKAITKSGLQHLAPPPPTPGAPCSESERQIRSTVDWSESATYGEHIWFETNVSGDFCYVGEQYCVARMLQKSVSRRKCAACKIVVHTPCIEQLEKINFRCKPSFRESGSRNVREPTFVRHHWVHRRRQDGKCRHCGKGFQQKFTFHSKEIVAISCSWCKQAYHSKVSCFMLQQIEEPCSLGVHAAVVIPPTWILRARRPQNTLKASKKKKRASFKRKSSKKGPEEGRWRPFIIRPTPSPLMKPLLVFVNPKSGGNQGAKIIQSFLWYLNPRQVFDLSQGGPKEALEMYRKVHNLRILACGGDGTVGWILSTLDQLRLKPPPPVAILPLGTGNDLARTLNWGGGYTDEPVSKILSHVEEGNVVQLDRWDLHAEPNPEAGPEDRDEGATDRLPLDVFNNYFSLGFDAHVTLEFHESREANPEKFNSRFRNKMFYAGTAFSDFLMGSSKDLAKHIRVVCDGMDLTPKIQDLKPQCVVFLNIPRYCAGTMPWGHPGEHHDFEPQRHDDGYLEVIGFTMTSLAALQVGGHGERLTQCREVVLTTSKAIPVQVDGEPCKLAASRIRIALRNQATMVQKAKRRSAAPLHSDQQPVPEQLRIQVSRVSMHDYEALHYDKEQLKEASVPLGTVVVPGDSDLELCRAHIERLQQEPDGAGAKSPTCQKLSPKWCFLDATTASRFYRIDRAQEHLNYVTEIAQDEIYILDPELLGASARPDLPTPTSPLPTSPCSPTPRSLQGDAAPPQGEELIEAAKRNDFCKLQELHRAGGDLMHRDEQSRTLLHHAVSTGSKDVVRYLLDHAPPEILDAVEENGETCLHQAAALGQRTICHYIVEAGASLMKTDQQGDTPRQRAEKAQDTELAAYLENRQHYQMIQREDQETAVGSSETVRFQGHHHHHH
Sequence of human DGKα (P23743 whole entry, looked up, the tested form may be a part): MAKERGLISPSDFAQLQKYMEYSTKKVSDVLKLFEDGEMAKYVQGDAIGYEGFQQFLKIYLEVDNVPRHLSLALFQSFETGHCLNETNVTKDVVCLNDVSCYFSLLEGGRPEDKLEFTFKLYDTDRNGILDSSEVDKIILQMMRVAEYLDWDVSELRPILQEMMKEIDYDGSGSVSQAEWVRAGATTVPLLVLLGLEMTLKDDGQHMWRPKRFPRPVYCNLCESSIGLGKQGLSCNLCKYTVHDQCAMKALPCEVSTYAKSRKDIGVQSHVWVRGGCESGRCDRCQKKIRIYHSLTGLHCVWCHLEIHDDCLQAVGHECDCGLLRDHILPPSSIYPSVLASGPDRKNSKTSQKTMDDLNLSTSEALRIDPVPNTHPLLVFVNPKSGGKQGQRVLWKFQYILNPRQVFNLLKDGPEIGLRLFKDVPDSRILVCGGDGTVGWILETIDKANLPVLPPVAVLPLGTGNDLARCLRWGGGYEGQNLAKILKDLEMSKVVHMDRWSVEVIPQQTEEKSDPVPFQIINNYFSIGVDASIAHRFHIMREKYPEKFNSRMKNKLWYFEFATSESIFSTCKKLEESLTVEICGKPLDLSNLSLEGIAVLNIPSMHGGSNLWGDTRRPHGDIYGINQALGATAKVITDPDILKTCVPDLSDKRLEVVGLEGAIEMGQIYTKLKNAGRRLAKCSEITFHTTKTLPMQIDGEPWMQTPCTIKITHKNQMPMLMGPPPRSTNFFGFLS

As usually defined, the IC50 is the point on the concentration scale where inhibition reaches its midpoint. A word on the EC50: it is the midpoint of the concentration-response curve. In the case of `CCC(c1nc(C2CC2)no1)N1C[C@H](CC)N(c2nc(=O)n(C)c3ccc(C#N)nc23)C[C@H]1CC` (stereo partly drawn) [Example 363, 4-((2S,5R)-4-(1-(3-cyclopropyl-1,2,4-oxadiazol-5-yl)propyl)-2,5-diethylpiperazin-1-yl)-1-methyl-2-oxo-1,2-dihydropyrido[3,2-d]pyrimidine-6-carbonitrile], the IC50 is 32 nM in assay [1] and 17 nM in assay [2]. Moreover, the EC50 in assay [3] turned out to be 160 nM; in assay [4] it was 24 nM.

As to `CC[C@H]1CN(C(C)c2ccc(C(F)(F)F)cc2)[C@H](CC)CN1c1nc(=O)n(C)c2ccc(OCCN(C)C)nc12` (stereo partly drawn) [Example 431, 4-((2S,5R)-2,5-diethyl-4-(1-(4-(trifluoromethyl)phenyl)ethyl)piperazin-1-yl)-6-(2-(dimethylamino)ethoxy)-1-methylpyrido[3,2-d]pyrimidin-2(1H)-one], the IC50 in assay [1] and in assay [2] was 250000 nM throughout. The EC50 in assay [3] and in assay [4] was 20000 nM each time.

With `CC[C@@H]1CN(c2nc(=O)n(C)c3ccc(C#N)nc23)[C@@H](C)CN1C(C)c1ccc(C(F)(F)F)c(C#N)c1` (single isomer, unassigned) [Example 356], the results for the IC50 in assay [1] and in assay [2] were 440 nM and 18000 nM, respectively. In assay [4], this compound displayed an EC50 of 930 nM.

In the case of `CC(c1ccc(CN2C[C@@H](C)O[C@@H](C)C2)cc1)N1C[C@H](C)N(c2nc(=O)n(C)c3ccc(C#N)nc23)C[C@H]1C` (stereo partly drawn) [Example 389, 4-((2S,5R)-4-(1-(4-(((2S,6R)-2,6-dimethylmorpholino)methyl)phenyl)ethyl)-2,5-dimethylpiperazin-1-yl)-1-methyl-2-oxo-1,2-dihydropyrido[3,2-d]pyrimidine-6-carbonitrile], the IC50 in assay [1] was 8220 nM; in assay [2], 1000 nM. In assay [4], this compound showed an EC50 of 370 nM.

As to `CCC1CN(c2nc(=O)n(C)c3ccc(C#N)nc23)[C@@H](C)CN1C(C)c1ccc(C(F)(F)F)c(CN2CCOCC2)c1` (single isomer, unassigned) [Example 350], the IC50 in assay [1] turned out to be 120 nM; in assay [2], 180 nM. The EC50 in assay [4] worked out at 3360 nM.

Consider `CCOC[C@@H]1CN(c2nc(=O)n(C)c3ccc(C#N)nc23)[C@@H](C)CN1C(CC)c1ccc(C(F)(F)F)cc1` (stereo partly drawn) [Example 401, 4-((2S,5S)-5-(ethoxymethyl)-2-methyl-4-(1-(4-(trifluoromethyl)phenyl)propyl)piperazin-1-yl)-1-methyl-2-oxo-1,2-dihydropyrido[3,2-d]pyrimidine-6-carbonitrile], for which the IC50 was determined as 230 nM in assay [1] and 160 nM in assay [2]. The same compound had an EC50 in assay [4] of 4890 nM.

On to `CC(c1ccc(C(F)(F)F)cc1)N1C[C@H](CO)N(c2nc(=O)n(C)c3ccc(C#N)nc23)C[C@H]1C` (single isomer, unassigned) [Example 407], for which the IC50 came out at 31000 nM in assay [1] and 400 nM in assay [2]. Also, in assay [4], it took 640 nM to reach a half-maximal effect (EC50).

For the compound `CCC(c1c(F)cc(OCC2CC2)cc1F)N1C[C@H](C)N(c2nc(=O)n(C)c3ccc(C#N)nc23)C[C@H]1CC` (stereo partly drawn) [Example 328, 4-((2S,5R)-4-(1-(4-(cyclopropylmethoxy)-2,6-difluorophenyl)propyl)-5-ethyl-2-methylpiperazin-1-yl)-1-methyl-2-oxo-1,2-dihydropyrido[3,2-d]pyrimidine-6-carbonitrile], the results for the IC50 in assay [1] and in assay [2] were 2230 nM and 2970 nM, respectively. In assay [4], this compound had an EC50 of 20000 nM.

Regarding `CCC(c1ccc(C(F)(F)F)cc1)N1C[C@H](CC)N(c2nc(=O)[nH]c3ccc(C#N)nc23)C[C@H]1CC` (stereo partly drawn) [Example 415, 4-((2S,5R)-2,5-diethyl-4-(1-(4-(trifluoromethyl)phenyl)propyl)piperazin-1-yl)-2-oxo-1,2-dihydropyrido[3,2-d]pyrimidine-6-carbonitrile], the IC50 came out at 61900 nM in assay [1] and 3310 nM in assay [2]. The compound also had an EC50 in assay [4] of 3440 nM.

Take `CC[C@H]1CN(C(C)c2ccc(C(F)(F)F)cc2)[C@H](CC)CN1c1nc(=O)n(C)c2ccc(C(F)F)nc12` (stereo partly drawn) [Example 440, 4-((2S,5R)-2,5-Diethyl-4-(1-(4-(trifluoromethyl)phenyl)ethyl)piperazin-1-yl)-6-(difluoromethyl)-1-methylpyrido[3,2-d]pyrimidin-2(1H)-one]: the IC50 came out at 44600 nM in assay [1] and 1140 nM in assay [2]. Further, the concentration for a half-maximal effect (EC50) in assay [4] was determined as 8070 nM.

On to `CCC1CN(c2nc(=O)n(C)c3ccc(C#N)nc23)[C@@H](C)CN1C(C)c1ccc(C(F)(F)F)c(CN2CCOCC2)c1` (single isomer, unassigned) [Example 351], for which the IC50 stood at 1040 nM in assay [1] and 180 nM in assay [2]. In assay [4], this compound displayed an EC50 of 380 nM.

For `CC(c1ccc(CN2CC3(COC3)C2)cc1)N1C[C@H](C)N(c2nc(=O)n(C)c3ccc(C#N)nc23)C[C@H]1C` (stereo partly drawn) [Example 393, 4-((2S,5R)-4-(1-(4-((2-oxa-6-azaspiro[3.3]heptan-6-yl)methyl)phenyl)ethyl)-2,5-dimethylpiperazin-1-yl)-1-methyl-2-oxo-1,2-dihydropyrido[3,2-d]pyrimidine-6-carbonitrile], the IC50 amounted to 125000 nM in assay [1] and 23500 nM in assay [2]. This compound also registered an EC50 in assay [4] of 3450 nM.

As for `C[C@@H]1CN(c2nc(=O)n(C)c3ccc(C#N)nc23)[C@@H](C)CN1C(c1ccc(F)cc1)C12CC(C(F)(F)F)(C1)C2` (stereo partly drawn) [Example 450, 4-((2S,5R)-4-((4-fluorophenyl)(3-(trifluoromethyl)bicyclo[1.1.1]pentan-1-yl)methyl)-2,5-dimethylpiperazin-1-yl)-1-methyl-2-oxo-1,2-dihydropyrido[3,2-d]pyrimidine-6-carbonitrile], the results for the IC50 in assay [1] and in assay [2] were 370 nM and 200 nM, respectively. The EC50 in assay [4] was determined as 20000 nM.

Regarding `CC[C@@H]1CN(c2nc(=O)n(C)c3ccc(C#N)nc23)[C@@H](C)CN1C(C)c1ccc(C2CCOCC2)cc1` (stereo partly drawn) [Example 330, 4-((2 S,5R)-5-ethyl-2-methyl-4-(1-(4-(tetrahydro-2H-pyran-4-yl)phenyl)ethyl)piperazin-1-yl)-1-methyl-2-oxo-1,2-dihydropyrido[3,2-d]pyrimidine-6-carbonitrile], the results for the IC50 in assay [1] and in assay [2] were 2830 nM and 640 nM, respectively. In addition, a half-maximal response in assay [4] (EC50) required 11000 nM.

As for `CCC(N1C[C@H](C)N(c2nc(=O)n(C)c3ccc(C#N)nc23)C[C@H]1C)C12CC(C(F)(F)F)(C1)C2` (single isomer, unassigned) [Example 449], the IC50 in assay [1] came out at 4080 nM; in assay [2], 7410 nM. Moreover, in assay [4], the EC50 was 20000 nM.

As to `CCC(c1ccc(OCCC(F)(F)F)cc1)N1C[C@H](C)N(c2nc(=O)n(C)c3ccc(C#N)nc23)C[C@H]1CC` (single isomer, unassigned) [Example 335], the IC50 in assay [1] came to 120 nM; in assay [2] it was 25 nM. For the same compound, in assay [4], the EC50 worked out at 140 nM.

Regarding `CCC(N1C[C@H](C)N(c2nc(=O)n(C)c3ccc(C#N)nc23)C[C@H]1C)C12CC(C(F)(F)F)(C1)C2` (stereo partly drawn) [Example 447, 4-((2S,5R)-2,5-dimethyl-4-(1-(3-(trifluoromethyl)bicyclo[1.1.1]pentan-1-yl)propyl)piperazin-1-yl)-1-methyl-2-oxo-1,2-dihydropyrido[3,2-d]pyrimidine-6-carbonitrile], the IC50 stood at 5570 nM in assay [1] and 13600 nM in assay [2]. The same compound displayed an EC50 in assay [4] of 20000 nM.

For the compound `CCOc1ccc(C(CC)N2C[C@H](C)N(c3nc(=O)n(C)c4ccc(C#N)nc34)C[C@H]2CC)cc1` (stereo partly drawn) [Example 306, 4-((2S,5R)-4-(1-(4-ethoxyphenyl)propyl)-5-ethyl-2-methylpiperazin-1-yl)-1-methyl-2-oxo-1,2-dihydropyrido[3,2-d]pyrimidine-6-carbonitrile], the IC50 in assay [1] was determined as 28 nM; in assay [2] it was 11 nM. In addition, in assay [4], it took 230 nM to reach a half-maximal effect (EC50).

As to `CC[C@@H]1CN(c2nc(=O)n(C)c3ccc(C#N)nc23)[C@@H](C)CN1C(C)c1ccc(C2(C#N)CC2)cc1` (stereo partly drawn) [Example 325, 4-((2S,5R)-4-(1-(4-(1-cyanocyclopropyl)phenyl)ethyl)-5-ethyl-2-methylpiperazin-1-yl)-1-methyl-2-oxo-1,2-dihydropyrido[3,2-d]pyrimidine-6-carbonitrile], the IC50 in assay [1] came out at 69 nM; in assay [2] it was 800 nM. Also, in assay [4], the midpoint of the response, the EC50, lay at 70 nM.

On to `CCC(c1ccc(OCC2(C)CC2)cc1)N1C[C@H](C)N(c2nc(=O)n(C)c3ccc(C#N)nc23)C[C@H]1CC` (stereo partly drawn) [Example 346, 4-((2S,5R)-5-ethyl-2-methyl-4-(1-(4-((1-methylcyclopropyl)methoxy)phenyl)propyl)piperazin-1-yl)-1-methyl-2-oxo-1,2-dihydropyrido[3,2-d]pyrimidine-6-carbonitrile], for which the figures for the IC50 in assay [1] and in assay [2] were 1240 nM and 1280 nM, respectively. In addition, it took 190 nM to reach a half-maximal effect in assay [4] (EC50).

`CC[C@@H]1CN(c2nc(=O)n(C)c3ccc(C#N)nc23)[C@@H](C)CN1C(c1ccc(OC(C)C)cc1)C(C)C` (stereo partly drawn) [Example 323, 4-((2S,5R)-5-ethyl-4-(1-(4-isopropoxyphenyl)-2-methylpropyl)-2-methylpiperazin-1-yl)-1-methyl-2-oxo-1,2-dihydropyrido[3,2-d]pyrimidine-6-carbonitrile]: the IC50 in assay [1] came to 21 nM; in assay [2] it was 520 nM. The same compound gave an EC50 in assay [4] of 670 nM.

Turning to `CC[C@@H]1CN(c2nc(=O)n(C)c3ccc(C#N)nc23)[C@@H](CO)CN1C(C)c1ccc(C(F)(F)F)cc1` (single isomer, unassigned) [Example 412], the IC50 in assay [1] turned out to be 45000 nM; in assay [2] it was 9670 nM. The EC50 in assay [4] came to 670 nM.
